# Measurements taken from patent US11045509B2, “Tributyrin compositions and methods therefor” (Compound Solutions, Inc., priority 2019, dated 2021).
# Assays:
# Format in all cases: in vivo, human
# Lachnospira = test: relative abundance of Lachnospira in stool before and after 3-week tributyrin study (16S rRNA); conditions: three volunteers, 300 mg tributyrin per day for 3 weeks, stool sample POST vs PRE, FIG. 3
# Description: (§1) The inventors recruited three volunteers who were asked to provide some basic anthropometric characteristics and lifestyle habits. All volunteer subjects (2 female and 1 male) were free of chronic disease and reported not having taken an antibiotic within the past six months. Body mass index (kg/m^2) analysis classified two of the subjects as “overweight” (BMI>25<30), and one as obese (BMI>30). Although activity habits varied, all of the subjects reported weekly participation in light-to-moderate physical activity, and relatively low caffeine intake (<200 mg/day) and alcohol intake (<3 drinks a week). Before the start of the 3-week study, stool samples were collected from each of the 3 volunteers using the commercially available UBiome Explorer kit. The collected stool samples were sent to Ubiome labs (San Francisco, Calif.) where DNA was extracted followed by 16S rRNA gene amplification for bacterial classification. The 3-week study involved each of the volunteers taking 300 milligrams (mg) of tributyrin per day for 3 weeks. Subjects were verbally instructed to maintain usual dietary and physical activity habits throughout the course of the study. At the end of the 3-week period, stool samples were collected following the same protocol, and sent for analysis. […]
# Faecalibacterium = test: relative abundance of Faecalibacterium in stool before and after 3-week tributyrin study (16S rRNA); conditions: three volunteers, 300 mg tributyrin per day for 3 weeks, stool sample POST vs PRE, FIG. 2
# Description: as §1
# [1] = system: Firmicutes to Bacteroidetes (F/B) ratio; test: collective Firmicutes to Bacteroidetes (F/B) ratio in stool before and after 3-week tributyrin study; conditions: three volunteers, 300 mg tributyrin per day for 3 weeks, stool samples POST vs PRE, FIG. 4
# Description: With reference to FIG. 4, the collective ratio of firmicutes to bacteroidetes (F/B ratio) was measured in the stool samples of the three volunteer subjects before and after taking tributyrin daily for three weeks as described in the Examples. The firmicutes and bacteroidetes are each a phylum of bacteria making up the largest portion of the human gut microbiome. In particular the F/B ratio has been reported to be associated with metabolic factors and cardiorespiratory fitness. Durk et al., 2018, Int J Sport Nutr Exerc Metab, 29, 249-253. Accordingly, the inventors contemplate a method of increasing the F/B ratio in the gut of a mammal with the administration of a tributyrin-containing composition to the mammal at a dosage that effectively increases the F/B ratio in the gut of the mammal. […] As such, contemplated compositions are thought to not only selectively improve gut microflora, but also to enhance nutrient uptake. The inventors recruited three volunteers who were asked to provide some basic anthropometric characteristics and lifestyle habits. All volunteer subjects (2 female and 1 male) were free of chronic disease and reported not having taken an antibiotic within the past six months. Body mass index (kg/m^2) analysis classified two of the subjects as “overweight” (BMI>25<30), and one as obese (BMI>30). […]
# Bifidobacterium = test: relative abundance of Bifidobacterium in stool before and after 3-week tributyrin study (16S rRNA); conditions: three volunteers, 300 mg tributyrin per day for 3 weeks, stool sample POST vs PRE, FIG. 1
# Description: as §1
smiles,measurement,setting,value
CCCC(=O)OCC(COC(=O)CCC)OC(=O)CCC [tributyrin],increase in relative abundance of Lachnospira,Lachnospira,114%
same,increase in relative abundance of Faecalibacterium,Faecalibacterium,29%
same,increase of collective F/B ratio,[1],approximately 50%
same,increase in relative abundance of Bifidobacterium,Bifidobacterium,"8,841%"
